From US6099821A, “Nuclear scintigraphic assessment of mucosal function” (University of Virginia, priority 1999, dated 2000)
“Also recorded” adds a separate entry of the source.

Columns and labels:
[1] = test system: jejunum of C3H mice; details: mouse, in vivo, 2 mg/kg
Method: (§1) C3H female mice, 11-13 weeks of age, were used in this study.
(§2) The dynamic enteroscintigraphy with ^99m Tc-pertechnetate and the morphology studies were performed as described above in Example 1.

[2] = test system: intestinal villi; type: in vivo, C3H mice; details: 9-AC (4 mg/kg), 3.5 days
Method: (§3) At 3.5 days after irradiation with 4, 6, 8 and 12.5 Gy and immediately upon completion of the absorption study, groups of 4-5 mice per radiation dose were killed by cervical dislocation and a 2-cm length of jejunum was removed for histological preparation. Intestinal segments were fixed in 10% neutral buffered formalin. Four transverse sections of intestine were prepared embedded into paraffin, cut at a thickness of 4 μm and stained with hematoxylin and eosin (H&E). Slides with tissue sections were examined with light microscopy under 400-power magnification. A total of 500 crypt cells per mouse form 12-16 complete crypts were scored as mitotic or apoptotic. The jejunum microcolony assay of H. R. Withers et al., J. Rad. Biol., 17, 261 (1970) was used to quantify jejunal crypt survival. Tissue sections were scored microscopically using 100-power magnification. Surviving crypts contained at least 10 tightly packed columnar epithelial cells located in the base of the crypt (discrete cell microcolonies). The number of surviving crypts/circumference of jejunum was plotted as a function of radiation dose in Gy.
as §1, §2

[3] = test system: jejunal mucosa; type: in vivo, C3H mice; details: 2 mg/kg 9-AC + 4 Gy TBI, day 3.5
Method: as §3, §1, §2

[4] = test system: jejunal crypts; assay: Jejunal microcolony assay (surviving crypts); type: in vivo, C3H mice; details: 3.5 days, vs control
Method: as §3, §1, §2

[5] = general statement; cited from earlier work
[6] = Toxicity of 9-aminocamptothecin; details: single 2 mg/kg 9-AC intramuscular injection
[7] = test system: intestine lumen / technetium pertechnetate active transport
[8] = test system: intestine lumen / technetium pertechnetate active transport; details: mouse, in vivo; cited from earlier work
[9] = test system: jejunal mucosa; details: intraluminal, after 12.5 Gy TBI
Method: To exclude a role of simple diffusion ("leakage") of the tracer through the irradiated GI mucosa studies of the intestinal permeability with ^67 Ga-citrate complex introduced into the jejunal lumen at 84 hours after exposure to 12.5 Gy were performed.
In order to evaluate if ^99m TcO^-4 absorption remains an active transport process in irradiated animals rather than passive diffusion or "leakage" phenomenon, studies were performed on irradiated gut permeability with ^67 Ga citrate complex.

[10] = test system: jejunal mucosa; details: literature, cited from earlier work
[11] = test system: mouse jejunal mucosa; assay: Dynamic enteroscintigraphy of jejunal absorption of ^99m TcO^-4 after total body irradiation; type: in vivo, C3Hf/Kam mice; details: for effect of irradiation on intestinal absorption: 4, 6, 8 and 12.5 Gy TBI
From the text: The effect of irradiation on pertechnetate (^99m TcO^-4) absorption in the mouse jejunum was studied in situ following single acute total body irradiation (TBI) with 4 Gy, 6 Gy, 8 Gy, and 12.5 Gy. During irradiation, three unanesthetized mice were placed in a 20×20×3.5 cm air-ventilated plastic jig and exposed to a single-source ^60 Co irradiator (Theratron 780-C) at a dose rate of […], with open irradiation field and 71 cm SSD. This setting assured homogeneous dose distribution within ±3% error.
Four to five mice per irradiation dose of 4 Gy, 6 Gy, 8 Gy and 12.5 Gy per day after irradiation (6 Gy irradiated group) were studied for the intestinal absorption function. The mice were fasted overnight (waster ad libitum) and then anesthetized with 100 μL of 1.5 mg/g ketamine solution injected intraperitoneally. The procedure began with a short midline incision of the abdomen after onset of deep anesthesia, and a 3 cm segment of the upper jejunum was identified, ligated with cotton sutures and catheterized with 0.2 mm flexible plastic catheter.
Next, the abdomen incision was closed with cotton sutures and the mouse was positioned under the collimated detector so the 1.5 cm window of the collimator was viewed at the heart projection with 0.2 cm skin-to-collimator distance. A 100 μL physiologic solution containing 100 μCi of Na(^99m TcO4) was rapidly injected through the catheter into the proximal end of the isolated jejunal segment with complete filling of the entire segment.
The absorption rate of ^99m TcO^-4 from the site of injection into the circulation was recorded automatically by measuring the relative radioactivity build-up rate above the heart projection with the frequency of two measurements per second. The entire dynamic enteroscintigraphy procedure took about 15 minutes in control mice. The systemic absorption of the pertechnetate (^99m TcO^-4) was performed on a standard scintillation radiometer combined with a multichannel analyzer (Ludlum Measurements, Sweetwater, Tex.) to record the radiometry data in time-dependent fashion. The software ULTIMA-4 was used to receive the graphic imaging of the dynamic radiometry data.
Measured activity/time curves detected above the heart are mathematically modeled as exponential saturation of the form y(t)=y0+dy {1-exp[-k(t-t0)]}; where y(t) is the observed time-dependent radioactive counts above the heart; y0 is the observed activity at time of tracer introduction, t0; dy is the magnitude of the change in radioactive counts after tracer introduction; and k is the rate constant characteristic of the active transport of tracer through the intestinal wall into the systemic blood circulation. Analyses of tracer absorption kinetics by this expression allow precise statistical assessment of radiation-induced functional impairment of the jejunal active transport process.

[12] = literature, cited from earlier work

CC[C@@]1(O)C(=O)OCc2c1cc1n(c2=O)Cc2cc3c(N)cccc3nc2-1 [9-aminocamptothecin]
mean rate of ^99m Tc-pertechnetate intestinal absorption [1]: significantly delayed | cell loss on the intestinal villi [2]: maximal cell loss on the intestinal villi | additive decrease in absorption vs number of apoptotic cells in the jejunal mucosa [3]: correlates well with the number of apoptotic cells in the jejunal mucosa | jejunal crypt survival ([4]; 9-AC (2 mg/kg) plus irradiation (4 Gy)): failed to show any difference in jejunal crypt survival | jejunal crypt survival ([4]; 9-AC alone (2 mg/kg)): failed to show any difference in jejunal crypt survival | GI toxicity [5]: pronounced GI toxicity | 2 mg/kg intramuscular dose as fraction of LD10 [6]: 1/2

[K+].[O-][Cl+3]([O-])([O-])[O-] [KClO4, potassium perchlorate]
shift of the saturation point on the radioactivity/time curve ([7]; mouse, in vivo): shifted the saturation point on the radioactivity/time curve to the right without changes in the amount of the absorbed tracer | competitive inhibition of technetium pertechnetate active transport [8]: known competitive inhibitor

O=C([O-])CC(O)(CC(=O)[O-])C(=O)[O-].[67Ga+3] [^67 Ga-citrate]
jejunal mucosa permeability [9]: jejunal mucosa stays impermeable | accumulation in the sites of lesion ([10]; inflammation or local hyperthermia): augments ^67 Ga-citrate accumulation in the sites of lesion | crossing of the intestinal epithelial barrier ([10]; normal): normally does not cross the intestinal epithelial barrier

[131IH] [^131 Iodine, iodine-131]
shape of intestinal absorption curve / active transport kinetics ([7]; mouse, in vivo): same shape of the ^99m TcO^-4 intestinal absorption curve was obtained

technetium pertechnetate [^99m TcO^-4]
effect of irradiation on intestinal absorption [11]: substantial dose-dependent decrease in the absorption function; also recorded: significantly decreases ^99m TcO^-4 jejunal absorption | effect of irradiation on intestinal absorption ([11]; listed as 99m Technetium-pertechnetate): decreased in a dose-dependent fashion | mean rate of the tracer absorption ([11]; 4 Gy TBI, 3.5 days after irradiation): 1.51±0.15 | time of minimal absorption after irradiation ([11]; 6 Gy TBI): 3.5 days | time to return of absorption rate to a normal level ([11]; 6 Gy TBI): about 14 days | effect of irradiation on absorption function at 24 hours ([11]; 6 Gy TBI, 24 hours after irradiation): significant decrease in the absorption function; also recorded: significant effect | jejunal absorption, % of the control level ([11]; 12.5 Gy TBI, 3.5 days after irradiation, listed as 99m Technetium-pertechnetate): ~25 % of the control level | correlation of decrease in absorption with cells per villus and irradiation dose ([11]; 3.5 days after 4 to 12.5 Gy): correlated with the numbers of cells per villus and the irradiation dose | mean rate of the tracer absorption ([11]; control (no irradiation)): 1.35±0.25 | time of maximal reduction of absorption ([11]; independently of TBI doses used): 84 h | intestinal absorption into the bloodstream ([7]; control mice): Rapid absorption | metabolic activity [12]: low metabolic activity | radiotoxicity [12]: one of the least radiotoxic nuclides | γ-emission energy [12]: 140 keV | half-life ([12]; radionuclide): 6 h
